Like-named read-outs stand apart in the source and are kept apart here. One block for each compound: values may come before it.
Legend:
HepG2 [1] = assay: Viability/toxicity of 5-FU-treated HepG2 with or without recombinant MMP-8; assay type: cell-based, Human; conditions: 5-FU-treated with or without recombinant MMP-8, data not shown
HepG2 [2] = assay: Intracellular 5-FU levels with or without recombinant MMP-8 by HPLC; assay type: cell-based, Human; conditions: 10 µg/mL recombinant MMP-8 plus 50 µM 5-FU vs 50 µM 5-FU alone, up to 60 min
Procedure: Chromatographic analysis was performed on a Model LC-20AT HPLC system (Shimadzu, Tokyo, Japan) equipped with a Model SPD-20A wavelength UV detector, SIL-20AC autosampler, and an LC Solution data processing system. A LiChroCART RP-18e column (Purospher, 250 mm, 5 µm, Merck, Darmstadt, Germany) with a LiChroCART 4-4 guard column was used for separation. The mobile phase comprised […] potassium phosphate-methanol (99∶1, v/v, pH 4.5 adjusted by 85% phosphoric acid), and the flow rate of the mobile phase was 1 ml/min. The detection wavelength was set at 266 nm. Under these conditions, the retention time of 5-FU was 5.4 min. […] Good linearity was achieved over the range of 0.01–5 µg/ml, with all coefficients of correlation greater than 0.998. All samples were freshly prepared, including the standard solutions, from the same stock solution (5 mg/mL). The 0.01-µg/mL limit of quantification was defined the lowest concentration on the calibration curve that could be measured routinely with acceptable bias and relative SD. The overall mean precision, defined by the relative SD, ranged from 0.2% to 11.0%. Analytical accuracy was expressed as the percentage difference of the mean observed values compared to known concentrations varying from −10.0% to 14.0%. The recovery results for concentrations of 0.1–10 µg/mL were 92.0%–94.0% […]

[3] = Plasma pharmacokinetics of 5-FU in rats with or without MMP-8 inhibitor before whole pelvic irradiation 2 Gy; assay type: in vivo, Sprague-Dawley rats; conditions: for AUC / Cmax / MRT / clearance / half-life / Vd: Sprague-Dawley, rat, iv, 100 mg/kg, 5-FU 100 mg/kg i.v.; for Vd: read-out: Vss
Procedure: (§1) Twenty hours after RT, the rats were administered 100 mg/kg of 5-FU in 2 mL of normal saline by intravenous infusion into the femoral vein over a 2-min period. A 150-µL blood sample was withdrawn from the jugular vein with a fraction collector according to a programmed schedule at 5, 15, 30, 45, and 60 min, and 1.5, 2, 2.5, and 3 h following drug administration. The blood samples were immediately centrifuged at 3300×g for 10 min. The resulting plasma (50 µL) was added to 1 mL of ethyl acetate in a clean tube, vortexed for 5 min, and centrifuged at 5900×g for 10 min. After centrifugation, the upper organic layer containing the ethyl acetate was transferred to a new tube and evaporated to dryness under flowing nitrogen. The dried residue was reconstituted with 50 µL of Milli-Q water (Millipore). A 20-µL aliquot of the solution was injected to the high performance liquid chromatography-ultraviolet (HPLC-UV) detection system.
(§2) Chromatographic analysis was performed on a Model LC-20AT HPLC system (Shimadzu, Tokyo, Japan) equipped with a Model SPD-20A wavelength UV detector, SIL-20AC autosampler, and an LC Solution data processing system. A LiChroCART RP-18e column (Purospher, 250 mm, 5 µm, Merck, Darmstadt, Germany) with a LiChroCART 4-4 guard column was used for separation. The mobile phase comprised […] potassium phosphate-methanol (99∶1, v/v, pH 4.5 adjusted by 85% phosphoric acid), and the flow rate of the mobile phase was 1 ml/min. The detection wavelength was set at 266 nm. Under these conditions, the retention time of 5-FU was 5.4 min. […] Good linearity was achieved over the range of 0.01–5 µg/ml, with all coefficients of correlation greater than 0.998. All samples were freshly prepared, including the standard solutions, from the same stock solution (5 mg/mL). The 0.01-µg/mL limit of quantification was defined the lowest concentration on the calibration curve that could be measured routinely with acceptable bias and relative SD. The overall mean precision, defined by the relative SD, ranged from 0.2% to 11.0%. Analytical accuracy was expressed as the percentage difference of the mean observed values compared to known concentrations varying from −10.0% to 14.0%. The recovery results for concentrations of 0.1–10 µg/mL were 92.0%–94.0%
MMP-8 inhibitor I (Calbiochem, La Jolla, CA) was administered to the rats to examine whether or not RT modulation of 5-FU pharmacokinetic parameters could be blocked. Briefly, MMP-8 inhibitor I was dissolved in PEG400/ethanol [4∶1 (v/v)] solution, yielding a final concentrations of 5 mg/mL. Two hours before irradiation, 10 mg/kg of MMP-8 inhibitor I was infused into the rat's tail vein over a 2-min period. After that, the rats were anesthetized with urethane 1 g/ml and α-chloralose 0.1 g/ml (1 ml/ kg by intraperitoneal injection), and were immobilized on a board to undergo computed tomography for simulation of the whole pelvic field and received irradiation, as described previously. The experimental animals were randomized to control without PEG400/ethanol [4∶1 (v/v)] solution (0 Gy), control with solvent (0 Gy), whole pelvic irradiation (2 Gy) with solvent and whole pelvic irradiation (2 Gy) with MMP-8 inhibitor and solvent groups, respectively. After RT sham RT 20 hrs, all rats received 5-FU (100 mg/kg) injections and the pharmacokinetic parameters of 5-FU were analyzed. Each group's data was collected from four rats.
(§3) Pharmacokinetic parameters including the AUC for concentration versus time, terminal elimination phase t1/2, Cmax, MRT, total plasma clearance and Vss were calculated using the pharmacokinetics calculation software WinNonlin Standard Edition, Version 1.1 (Scientific Consulting, Apex, NC, USA) using a compartmental method.

[4] = tested on: alanine aminotransferase (ALT); assay: Evaluation of hepatic function (plasma ALT); assay type: in vivo; conditions: rats
Procedure: The plasma levels of alanine aminotransferase (ALT) were measured to check the influence of different modalities for hepatic function by a standard colorimetric method using a Synchron LX20 spectrophotometer (Beckman Coulter) and manufacturer-supplied reagents.

[5] = design: method as in PMID 9188061; conditions: rats, mean ± SD, cited from earlier work
[6] = Plasma pharmacokinetics of 5-FU in rats after whole pelvic irradiation; assay type: in vivo, Sprague-Dawley rats; conditions: for AUC / Cmax / MRT / clearance / half-life / Vd: Sprague-Dawley, rat, iv, 100 mg/kg, 5-FU 100 mg/kg i.v.; for Vd: read-out: Vss
Procedure: The rats were anesthetized with urethane 1 g/ml and α-chloralose 0.1 g/ml (1 ml/kg by intraperitoneal injection), and were immobilized on a board when undergoing computed tomography for simulation of the whole pelvic field. The cranial margin was set at the top of the bilateral iliac crests for the whole pelvic field (Fig. 7). Conventional radiotherapy was used to deliver the radiation dose via the anterior-posterior (AP) and PA portals. The experimental animals were randomized to the control, 2-Gy alone, 5-FU alone, 0.5-Gy followed by 5-FU, and 2-Gy followed by 5-FU groups. Each group's data was collected from six rats.
as §1, §2, §3

[7] = Bile pharmacokinetics of 5-FU in rats after whole pelvic irradiation; assay type: in vivo, Sprague-Dawley rats; conditions: for AUC / Cmax / MRT / clearance / half-life / Vd: Sprague-Dawley, rat, iv, 100 mg/kg, 5-FU 100 mg/kg i.v.; for Vd: read-out: Vss
[8] = cited from earlier work
[9] = MMP-8 inhibitor 10 mg/kg 2 h before 2 Gy
[10] = whole pelvic irradiation 0.5 Gy
[11] = plasma, controls without solvent
[12] = plasma, whole pelvic irradiation 2 Gy with solvent
[13] = plasma, plasma, whole pelvic irradiation 2 Gy with solvent and MMP-8 inhibitor (10 mg/kg, 2 h before irradiation)

Compound: recombinant MMP-8: recombinant matrix metalloproteinase-8, 10 µg/mL added to HepG2 cells
- toxicity to HepG2 (HepG2 [1]): no significant toxicity
- effect on the AUC of intracellular 5-FU (HepG2 [2]): no significant effect

Compound: COc1ccc(S(=O)(=O)N2Cc3ccccc3C[C@@H]2C(=O)NO)cc1 [MMP-8 inhibitor]
- effect on the decreased MRT of 5-FU caused by irradiation [3, 9]: completely reversed
- effect on the increased clearance value of 5-FU caused by irradiation [3, 9]: completely reversed
- effect of pretreatment on the decline in AUC of 5-FU caused by pelvic irradiation ([3]; MMP-8 inhibitor 10 mg/kg 2 h before 2 Gy, P<0.05): significantly attenuated
- effect of MMP-8 inhibitor alone on the AUC of 5-FU ([3]; plasma, in comparison with the controls): Neither the MMP-8 inhibitor alone nor its vehicle had a significant effect

- reduction of the AUC of 5-FU by pelvic irradiation ([6]; 0.5 Gy vs non-irradiated controls, P = 0.019): 17.6%
- reduction of the AUC of 5-FU by pelvic irradiation ([6]; 2 Gy vs non-irradiated controls, P = 0.008): 21.5%
- AUC ([6]; controls 0 Gy): 78800 ng·h/mL
- Cmax ([6]; controls 0 Gy): 164 ± 36 µg/mL
- MRT ([6]; controls 0 Gy): 36.5 min
- clearance ([6]; controls 0 Gy): 21.3 ± 1.9 mL/min/kg
- half-life ([6]; controls 0 Gy): 34.7 ± 9.6 min
- Vd ([6]; controls 0 Gy): 0.778 ± 0.088 L/kg
- AUC [6, 10]: 64900 ng·h/mL
- Cmax [6, 10]: 167 ± 23 µg/mL
- MRT [6, 10]: 30.9 min
- clearance [6, 10]: 25.8 ± 2 mL/min/kg
- half-life [6, 10]: 24.7 ± 3.5 min
- Vd [6, 10]: 0.775 ± 0.116 L/kg
- AUC ([6]; whole pelvic irradiation 2 Gy): 61900 ng·h/mL
- Cmax ([6]; whole pelvic irradiation 2 Gy): 179 ± 19 µg/mL
- MRT ([6]; whole pelvic irradiation 2 Gy): 25 min
- clearance ([6]; whole pelvic irradiation 2 Gy): 27.3 ± 3.6 mL/min/kg
- half-life ([6]; whole pelvic irradiation 2 Gy): 29.9 ± 7.1 min
- Vd ([6]; whole pelvic irradiation 2 Gy): 0.67 ± 0.06 L/kg
- increase of the AUC of 5-FU in bile by pelvic irradiation ([7]; 0.5 Gy vs non-irradiated controls): 25.1%
- increase of the AUC of 5-FU in bile by pelvic irradiation ([7]; 2 Gy vs non-irradiated controls): 30.6%
- AUC ([7]; controls 0 Gy): 19700 ng·h/mL
- Cmax ([7]; controls 0 Gy): 129 ± 22 µg/mL
- MRT ([7]; controls 0 Gy): 8.9 min
- clearance ([7]; controls 0 Gy): 84.8 ± 3.6 mL/min/kg
- half-life ([7]; controls 0 Gy): 9.2 ± 0.4 min
- Vd ([7]; controls 0 Gy): 0.754 ± 0.102 L/kg
- AUC [7, 10]: 24600 ng·h/mL
- Cmax [7, 10]: 120 ± 14 µg/mL
- MRT [7, 10]: 11.1 min
- clearance [7, 10]: 67.9 ± 3.6 mL/min/kg
- half-life [7, 10]: 10.3 ± 0.5 min
- Vd [7, 10]: 0.753 ± 0.025 L/kg
- AUC ([7]; whole pelvic irradiation 2 Gy): 25700 ng·h/mL
- Cmax ([7]; whole pelvic irradiation 2 Gy): 93 ± 6 µg/mL
- MRT ([7]; whole pelvic irradiation 2 Gy): 13.9 min
- clearance ([7]; whole pelvic irradiation 2 Gy): 65.1 ± 4.3 mL/min/kg
- half-life ([7]; whole pelvic irradiation 2 Gy): 12.9 ± 2.8 min
- Vd ([7]; whole pelvic irradiation 2 Gy): 0.903 ± 0.055 L/kg
- AUC ([3]; plasma, controls with solvent): 71400 ng·h/mL
- Cmax ([3]; plasma, controls with solvent): 146 ± 35 µg/mL
- MRT ([3]; plasma, controls with solvent): 36 min
- clearance ([3]; plasma, controls with solvent): 23.4 ± 0.8 mL/min/kg
- half-life ([3]; plasma, controls with solvent): 27.8 ± 3 min
- AUC [3, 11]: 71400 ng·h/mL
- Cmax [3, 11]: 151 ± 17 µg/mL
- MRT [3, 11]: 37 min
- clearance [3, 11]: 23.4 ± 1.1 mL/min/kg
- half-life [3, 11]: 33.3 ± 16.1 min
- AUC [3, 12]: 55100 ng·h/mL
- Cmax [3, 12]: 132 ± 51 µg/mL
- MRT [3, 12]: 26 min
- clearance [3, 12]: 30.3 ± 0.3 mL/min/kg
- half-life [3, 12]: 31 ± 8.8 min
- Vd ([3]; plasma, plasma, controls with solvent): 0.836 ± 0.097 L/kg
- Vd ([3]; plasma, plasma, controls without solvent): 0.859 ± 0.022 L/kg
- AUC [3, 13]: 66000 ng·h/mL
- Cmax [3, 13]: 122 ± 29 µg/mL
- MRT [3, 13]: 36 min
- clearance [3, 13]: 25.4 ± 2.8 mL/min/kg
- half-life [3, 13]: 32.3 ± 9.9 min
- Vd [3, 13]: 0.911 ± 0.127 L/kg
- Vd ([3]; plasma, plasma, whole pelvic irradiation 2 Gy with solvent): 0.784 ± 0.11 L/kg
Compound: O=c1[nH]cc(F)c(=O)[nH]1 [5-FU, 5-fluorouracil]
- alanine aminotransferase (ALT) levels vs control group ([4]; 0.5 Gy followed by 5-FU): no significant difference
- alanine aminotransferase (ALT) levels vs control group ([4]; 2 Gy followed by 5-FU): no significant difference
- alanine aminotransferase (ALT) levels vs control group ([4]; 5-FU-treated only): no significant difference
- dose-normalized area under the curve (AUC) ([5]; 10 mg/kg): 0.43 ± 0.11 mg·h/L/mg
- dose-normalized area under the curve (AUC) ([5]; 50 mg/kg): 0.50 ± 0.16 mg·h/L/mg
- dose-normalized area under the curve (AUC) ([5]; 100 mg/kg): 1.14 ± 0.55 mg·h/L/mg
- fraction catabolyzed by the liver via the dihydropyrimidine dehydrogenase (DPD) pathway [8]: About 80%

From article PMC3111455, “Matrix Metalloproteinase-8 Mediates the Unfavorable Systemic Impact of Local Irradiation on Pharmacokinetics of Anti-Cancer Drug 5-Fluorouracil” (PLoS ONE, 2011)
